# Values quoted from earlier work in patent US20180185375A1, “COMPOSITIONS AND METHODS FOR THE TREATMENT OF SUBSTANCE USE DISORDERS, ADDICTION, AND PSYCHIATRIC DISORDERS” (EMBERA NEUROTHERAPEUTICS, INC., priority 2015, published 2018).
# Columns and labels:
# adrenal gland = settings: in vivo
# [1] = system: cocaine self-administration in rats
# cortisol levels = settings: healthy subjects
# [2] = 12.5 mg/kg metyrapone tested alone, rats
smiles,measurement,setting,value
Clc1ccc(C(c2ccccc2Cl)C(Cl)Cl)cc1 (stereo not drawn) [Mitotane],doses at which it is an adrenolytic agent,adrenal gland,greater than 4 g per day
Cc1nnc2n1-c1ccc(Cl)cc1C(c1ccccc1)=NC2 [alprazolam],effect of the dose alone on cocaine self-administration,"[1]; alprazolam 1.0 mg/kg, ip, alone",ineffective
CCOC(=O)c1cncn1[C@H](C)c1ccccc1 [etomidate],time after which infusion resulted in significant suppression of cortisol levels,cortisol levels,5 h
same,time of maximal effects on cortisol levels,cortisol levels; infusion,11 h
CC(C)(C(=O)c1cccnc1)c1cccnc1 [metyrapone],effect on cocaine-maintained responding,[1]; [2],no effect
same,effect on food-maintained responding,[1]; [2],no effect
